Where two headings read alike, the source gives them in different places.
Key:
SNU790 (BRAF^V600E) = assay: In vitro cell growth inhibition, thyroid cancer; assay type: cell-based; settings: SNU7890, BRAF^V600E
[1] = Phase I study plasma pharmacokinetics; assay type: in vivo, human; settings: for AUC(0-inf) / AUC(0-t) / Cmax / AUC / Vd/F / Tmax: human, plasma, oral; for AUC: read-out: AUC24; for Vd/F: read-out: Vz/F; for Tmax: median, read-out: Tmax
Source text: The PK parameters of belvarafenib were estimated in 48 patients in the dose-escalation phase and 35 patients in the dose-expansion phase. In the tables: “AUClast” refers to the area under the plasma concentration-time curve from zero time until the last measurable concentration; “AUC0-∞” refers to area under the plasma concentration-time curve from zero time to infinity; “AUC24” refers to the area under the curve from T0 to T24; “Cmax” refers to the maximal concentration; “Tmax” refers to the time to reach Cmax; “T1/2β” refers to the terminal elimination half-life; “QD” refers to once a day; and “BID” refers to twice a day. […] Mean and coefficient of variation are presented except for Tmax where median and range are presented. One patient in the 200 QD dosing regimen who took concomitant rifampin was removed from the analysis because the AUC and Cmax of the patient were much lower than those of the others in the same cohort, which, without being bound to any particular theory, could have resulted from the drug-metabolizing enzyme induction by rifampin through which belvarafenib is biotransformed.

[2] = Day 1 first dose, 50 mg/day QD, n=3, mean
[3] = Day 1 first dose, 100 mg/day QD, n=3, mean
[4] = Day 1 first dose, 200 mg/day QD, n=6, mean
[5] = Day 1 first dose, 200 mg/day QD, n=7, mean
[6] = Day 1 first dose, 400 mg/day BID, n=11, mean
[7] = Day 1 first dose, 600 mg/day BID, n=7, mean
[8] = Day 1 first dose, 600 mg/day QD, n=6, mean
[9] = Day 1 first dose, 900 mg/day BID, n=8, mean
[10] = Day 1 first dose, 1300 mg/day BID, n=6, mean
[11] = Day 1 first dose, 1600 mg/day BID, n=6, mean
[12] = Multiple administrations Day 17, 50 mg/day QD, n=2, mean
[13] = Multiple administrations Day 22, 100 mg/day QD, n=3, mean
[14] = Multiple administrations Day 22, 200 mg/day QD, n=5, mean
[15] = Multiple administrations Day 22, 200 mg/day QD, n=6, mean
[16] = Multiple administrations Day 22, 400 mg/day BID, n=8, mean
[17] = 50 mg/day, Multiple administrations Day 17, 50 mg/day QD, n=2, mean
[18] = 100 mg/day, Multiple administrations Day 22, 100 mg/day QD, n=3, mean
[19] = 200 mg/day, Multiple administrations Day 22, 200 mg/day QD, n=5, mean
[20] = 200 mg/day, Multiple administrations Day 22, 200 mg/day QD, n=6, mean
[21] = 400 mg/day, Multiple administrations Day 22, 400 mg/day BID, n=8, mean
[22] = 600 mg/day, Multiple administrations Day 22, 600 mg/day BID, n=6, mean

With `Cc1ccc2c(Nc3cccc(Cl)c3F)nccc2c1NC(=O)c1csc2c(N)ncnc12` [Belvarafenib] the GI50 (SNU790 (BRAF^V600E)) was 27 nM, the CL/F [1, 2] was 2.5 L/h and the T1/2β [1, 2] was 51.6 h. It also gave a CL/F [1, 3] of 2.5 L/h, a T1/2β [1, 3] of 55.3 h and a CL/F [1, 4] of 7.3 L/h. For the same compound, the T1/2β [1, 4] was 57.7 h, the CL/F [1, 5] was 15.4 L/h and the T1/2β [1, 5] was 50.5 h. The CL/F [1, 6] was 7.8 L/h, the T1/2β [1, 6] was 70.7 h and the CL/F [1, 7] was 7.7 L/h. It also gave a T1/2β [1, 7] of 86.6 h, a CL/F [1, 8] of 9.9 L/h and a T1/2β [1, 8] of 58.9 h. The CL/F [1, 9] was 5.7 L/h, the T1/2β [1, 9] was 84.3 h and the CL/F [1, 10] was 9.0 L/h. It also gave a T1/2β [1, 10] of 77.4 h, a CL/F [1, 11] of 14.5 L/h and a T1/2β [1, 11] of 215.8 h. It also gave a CL/F [1, 12] of 0.6 L/h, a T1/2β [1, 12] of 70.7 h and a CL/F [1, 13] of 0.9 L/h. The T1/2β [1, 13] was 106.1 h, the CL/F [1, 14] was 1.3 L/h and the T1/2β [1, 14] was 69.8 h. For the same compound, the CL/F [1, 15] was 2.4 L/h, the T1/2β [1, 15] was 65.1 h and the CL/F [1, 16] was 3.3 L/h. The T1/2β [1, 16] was 41.2 h, the T1/2β ([1]; Multiple administrations Day 22, 600 mg/day BID, n=6, mean) was 52.3 h and the CL/F ([1]; Multiple administrations Day 22, 600 mg/day BID, n=6, mean (CV)) was 2.2 (63.3) L/h. For the same compound, the T1/2β ([1]; Multiple administrations Day 22, 600 mg/day QD, n=6, mean) was 97.7 h, the CL/F ([1]; Multiple administrations Day 22, 600 mg/day QD, n=6, mean (CV)) was 3.4 (81.8) L/h and the T1/2β ([1]; Multiple administrations Day 22, 900 mg/day BID, n=7, mean) was 32.3 h. For the same compound, the CL/F ([1]; Multiple administrations Day 22, 900 mg/day BID, n=7, mean (CV)) was 3.8 (50.7) L/h, the T1/2β ([1]; Multiple administrations Day 22, 1300 mg/day BID, n=6, mean) was 66.4 h and the CL/F ([1]; Multiple administrations Day 22, 1300 mg/day BID, n=6, mean (CV)) was 2.7 (54.7) L/h. The T1/2β ([1]; Multiple administrations Day 22, 1600 mg/day BID, n=4, mean) was 42.7 h, the CL/F ([1]; Multiple administrations Day 22, 1600 mg/day BID, n=4, mean (CV)) was 14.8 (61.2) L/h and the “mean plasma concentration versus dose” value ([1]; from 50 mg QD to 650 mg BID) was “linearity in a dose-proportional manner”. For the same compound, the AUC(0-inf) [1, 17] was 88800 ng·h/mL, the AUC(0-t) [1, 17] was 18900 ng·h/mL and the Cmax [1, 17] was 1120 ng/mL. For the same compound, the AUC [1, 17] was 18900 ng·h/mL, the Vd/F [1, 17] was 57.6 L and the Tmax ([1]; 50 mg/day, Multiple administrations Day 17, 50 mg/day QD, n=2) was 3 h. It also gave an AUC(0-inf) [1, 18] of 349000 ng·h/mL, an AUC(0-t) [1, 18] of 41900 ng·h/mL and a Cmax [1, 18] of 1990 ng/mL. It also gave an AUC [1, 18] of 42000 ng·h/mL, a Vd/F [1, 18] of 62.7 L and a Tmax ([1]; 100 mg/day, Multiple administrations Day 22, 100 mg/day QD, n=3) of 5 h. For the same compound, the AUC(0-inf) [1, 19] was 239000 ng·h/mL, the AUC(0-t) [1, 19] was 48200 ng·h/mL and the Cmax [1, 19] was 2520 ng/mL. For the same compound, the AUC [1, 19] was 48200 ng·h/mL, the Vd/F [1, 19] was 116 L and the Tmax ([1]; 200 mg/day, Multiple administrations Day 22, 200 mg/day QD, n=5) was 3.2 h. The AUC(0-inf) [1, 20] was 203000 ng·h/mL, the AUC(0-t) [1, 20] was 41600 ng·h/mL and the Cmax [1, 20] was 2210 ng/mL. For the same compound, the AUC [1, 20] was 41700 ng·h/mL, the Vd/F [1, 20] was 178 L and the Tmax ([1]; 200 mg/day, Multiple administrations Day 22, 200 mg/day QD, n=6) was 3.1 h. It also gave an AUC(0-inf) [1, 21] of 207000 ng·h/mL, an AUC(0-t) [1, 21] of 67500 ng·h/mL and a Cmax [1, 21] of 3210 ng/mL. It also gave an AUC [1, 21] of 68900 ng·h/mL, a Vd/F [1, 21] of 157 L and a Tmax ([1]; 400 mg/day, Multiple administrations Day 22, 400 mg/day BID, n=8) of 13.1 h. The AUC(0-inf) [1, 22] was 507000 ng·h/mL, the AUC(0-t) [1, 22] was 116000 ng·h/mL and the Cmax [1, 22] was 5700 ng/mL. It also gave an AUC [1, 22] of 120000 ng·h/mL and a Vd/F [1, 22] of 122 L.

From patent US20230233567A1, “BELVARAFENIB FOR USE IN CANCER TREATMENT” (Hanmi Pharm. Co., Ltd., priority 2020, published 2023)
